Where two headings read alike, the source gives them in different places. Bounds are passed on as bounds.

The source of these data is PMC10458698, “Characterization of the interferences of systemic azole antifungal drugs with adrenal steroid biosynthesis using H295R cells and enzyme activity assays” (Current Research in Toxicology, 2023).

One series addresses T1, CYP11A1 (Homo sapiens, UniProt P05108).
T1 construct: host or cells: V79-4 cells (Chinese hamster), transient transfection, mitochondrial fraction
T1 sequence (P05108 40-521): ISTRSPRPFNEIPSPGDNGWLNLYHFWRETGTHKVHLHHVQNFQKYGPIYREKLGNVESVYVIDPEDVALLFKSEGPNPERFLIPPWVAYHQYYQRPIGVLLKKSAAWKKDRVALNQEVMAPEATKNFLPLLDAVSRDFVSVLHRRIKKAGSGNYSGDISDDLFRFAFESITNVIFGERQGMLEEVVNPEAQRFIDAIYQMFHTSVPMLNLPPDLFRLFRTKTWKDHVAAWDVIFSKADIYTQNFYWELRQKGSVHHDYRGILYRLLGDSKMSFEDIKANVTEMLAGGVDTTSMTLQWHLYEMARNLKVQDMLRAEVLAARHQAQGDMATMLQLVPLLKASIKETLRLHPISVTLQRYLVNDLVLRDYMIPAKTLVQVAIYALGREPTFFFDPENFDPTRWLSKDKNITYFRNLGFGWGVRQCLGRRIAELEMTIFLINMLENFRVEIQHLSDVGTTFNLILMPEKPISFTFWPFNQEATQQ
As to the kind of experiment: CYP11A1 assay based on mitochondrial fraction of V79-4 cells. The series is classed as biochemical. Particulars: 10 µM, 20S-hydroxycholesterol 2 µM, 4 h, qualitative, assay of low sensitivity. The procedure:
Mitochondria were prepared as described previously with modifications ([Frezza et al., 2007]). Briefly, V79-4 cells (3,000,000) were seeded 4 h prior to transfection with 4 µg of expression plasmid for CYP11A1 and adrenodoxin (GeneScript Piscataway, USA, clone IDs OHu18602D and OHu55929D) using polyethylemine (PEI) in a PEI/DNA ratio of 3:1 (w/w). At 4 h post-transfection, medium was changed and cells were incubated overnight. Cells were collected in ice cold phosphate buffered saline (PBS) and centrifuged at 600 × g for 10 min at 4 °C. The pellet was resuspended in ice cold isolation buffer (10 mM Tris/MOPS, pH 7.4, 1 mM EGTA/Tris, pH 7.4, 200 mM sucrose in water) and transferred to a glass potter, followed by 35 S using a 2 cm^3 glass Teflon pestle. The homogenate was centrifuged for 10 min at 600 × g and 4 °C. The supernatant was collected and centrifuged for 10 min at 7000 × g at 4 °C. The pellet was washed and resuspended in 200 μL ice cold isolation buffer. After centrifugation, the pellet containing the mitochondrial fraction was resuspended in 30 μL reaction buffer (25 mM HEPES pH 7.4, 0.1 mM DTT, 0.1 mM EDTA, 4 mM MgCl2) and the protein content was determined by the BCA assay according to the manufacturer (Pierce BCA protein assay kit, Thermo Scientific, Rockford, USA). Bovine serum albumin provided with the kit was used as reference protein and absorbance was measured using a BioTek Cytation5 Imaging Reader (Agilent BioTek).
For the CYP11A1 activity assay, 500 µg/mL of freshly prepared mitochondrial fraction were pre-incubated on ice with reaction buffer, 1 mM NADPH and either vehicle (0.1% DMSO), 10 µM of the positive control ketoconazole ([Mast et al., 2013]) or the triazole antifungals for 10 min. The reaction was started by adding the substrate 20S-hydroxycholesterol at a final concentration of 2 µM in a reaction volume of 50 µL. After 4 h of incubation at 37 °C, the reaction was stopped by adding 50 µL methanol and shock-freezing in liquid nitrogen. Samples were stored at −80 °C until sample preparation for pregnenolone detection using an ELISA kit (Alpco, Salem, USA). Sample preparation included evaporation of samples to dryness, reconstitution in 6 µL methanol and 1:25 (v:v) dilution in water. The ELISA was performed according to the manufacturer and absorbance was measured using a BioTek Citation5 imaging reader.

The test system of another series is CYP11B1. The arrangement: method as in Beck et al., 2020a. The conditions noted are these: ref Beck et al., 2020a; cited from earlier work.
On the set-up of series [1]: method as in earlier work. The conditions noted are these: ref Zhang et al., 2018, Märtson et al., 2019, Vena et al., 2020, Risum et al., 2021, cited from earlier work.

One may read the IC50 as the midpoint of a concentration-inhibition curve. With `CC[C@@H]([C@H](C)O)n1ncn(-c2ccc(N3CCN(c4ccc(OC[C@@H]5CO[C@@](Cn6cncn6)(c6ccc(F)cc6F)C5)cc4)CC3)cc2)c1=O` [posaconazole, Posaconazole], on CYP11A1, the “inhibition of CYP11A1 activity” value is listed as “very weak inhibitory activity”. The IC50 with CYP11B1 is 0.06 µM. For the same compound, the serum trough concentration in series [1] is listed as above 0.7 µg/mL.
On to `C[C@@H](c1nc(-c2ccc(C#N)cc2)cs1)[C@](O)(Cn1cncn1)c1cc(F)ccc1F` [isavuconazole], for which the “inhibition of CYP11A1 activity” value against CYP11A1 is reported as “comparable to ketoconazole”. Besides, the IC50 in the series on CYP11B1 is 3 µM. The serum trough concentration in series [1] (molar value in brackets) is around 1 µM; in series [1], 4 µg/mL.
For the compound `CCC(C)n1ncn(-c2ccc(N3CCN(c4ccc(OCC5COC(Cn6cncn6)(c6ccc(Cl)cc6Cl)O5)cc4)CC3)cc2)c1=O` (stereo not shown) [itraconazole], the “inhibition of CYP11A1 activity” value on CYP11A1 is “very weak inhibitory activity”. The IC50 in the series with CYP11B1 was 0.44 µM. Moreover, the serum trough concentration in series [1] was 0.5 to 1 µg/mL.
